Experimental findings from patent US20250312352A1, “GLP-1R MODULATING COMPOUNDS” (Gilead Sciences, Inc., priority 2021, published 2025) are described below.

T1 sequence (P43220 24-463): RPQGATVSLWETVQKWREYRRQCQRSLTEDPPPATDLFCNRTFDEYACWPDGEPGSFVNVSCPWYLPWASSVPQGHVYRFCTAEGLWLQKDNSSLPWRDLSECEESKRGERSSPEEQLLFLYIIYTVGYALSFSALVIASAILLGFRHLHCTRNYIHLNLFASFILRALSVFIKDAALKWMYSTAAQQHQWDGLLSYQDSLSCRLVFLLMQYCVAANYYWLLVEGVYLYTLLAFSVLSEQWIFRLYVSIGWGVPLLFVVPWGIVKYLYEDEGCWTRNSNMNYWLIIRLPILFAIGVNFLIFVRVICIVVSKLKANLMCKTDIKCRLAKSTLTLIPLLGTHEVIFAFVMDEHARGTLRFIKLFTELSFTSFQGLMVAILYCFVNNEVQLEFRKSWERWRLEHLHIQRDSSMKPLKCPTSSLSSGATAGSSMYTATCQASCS

The assay has as its target T1, GLP-1R (Homo sapiens, UniProt P43220).
T1 construct: host or cells: CHO cells
In words: GLP-1R activation cAMP assay (Assay 1 or Assay 2). The following applies: cAMP increase in CHO cells stably expressing GLP-1R; compounds run on one of the two cAMP assays. It is filed as cell-based. Put shortly:
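CHO cells stably expressing human GLP-1R were incubated 1 h in HBSS/20 mM HEPES/0.1% BSA, then exposed to 10-point agonist dilutions for 30 min at 37 °C. cAMP increase was measured with an HTRF Gs dynamic kit; EC50 from sigmoidal fit of response versus log concentration.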
For orientation: Changes in cAMP serve as a functional read-out for many G protein-coupled receptors.
Usually EC50 stands for the concentration at which the effect is half-maximal. Higher therefore signals a need for much substance. In turn, `CNC(=O)c1cc(Cl)c(COc2cccc(-c3cc(F)c(Cc4nc5c(F)cc(C(=O)O)cc5n4[C@@H]4COCC4(C)C)cc3F)n2)cn1` [Example 365, (S)-2-(4-(6-((4-chloro-6-(methylcarbamoyl)pyridin-3-yl)methoxy)pyridin-2-yl)-2,5-difluorobenzyl)-1-(4,4-dimethyltetrahydrofuran-3-yl)-4-fluoro-1H-benzo[d]imidazole-6-carboxylic acid] showed an EC50 of 0.164 nM. Molecule `COc1cc(C#Cc2cnn(C)c2)ncc1COc1cccc(-c2cc(F)c(Cc3nc4ccc(C(=O)O)cc4n3C[C@@H]3CCO3)cc2F)n1` [Example 145, (S)-2-(2,5-difluoro-4-(6-((4-methoxy-6-((1-methyl-1H-pyrazol-4-yl)ethynyl)pyridin-3-yl)methoxy)pyridin-2-yl)benzyl)-1-(oxetan-2-ylmethyl)-1H-benzo[d]imidazole-6-carboxylic acid] displayed an EC50 of 0.25 nM. For `Cn1cc(NC(=O)c2cc(Cl)c(COc3cccc(-c4cc(F)c(Cc5nc6ccc(C(=O)O)cc6n5C[C@@H]5CCO5)cc4F)n3)cn2)cn1` [Example 194, (S)-2-(4-(6-((4-chloro-6-((1-methyl-1H-pyrazol-4-yl)carbamoyl)pyridin-3-yl)methoxy)pyridin-2-yl)-2,5-difluorobenzyl)-1-(oxetan-2-ylmethyl)-1H-benzo[d]imidazole-6-carboxylic acid], the midpoint of the response, the EC50, lay at 0.17 nM. Molecule `Cn1ccc(C#Cc2ccc(COc3cccc(-c4cc(F)c(Cc5nc6ccc(C(=O)O)cc6n5C[C@@H]5CCO5)cc4F)n3)c(F)c2)n1` [Example 134, (S)-2-(2,5-difluoro-4-(6-((2-fluoro-4-((1-methyl-1H-pyrazol-3-yl)ethynyl)benzyl)oxy)pyridin-2-yl)benzyl)-1-(oxetan-2-ylmethyl)-1H-benzo[d]imidazole-6-carboxylic acid] had a half-maximal effective concentration (EC50) of 0.6 nM. As for `O=C(O)c1ccc2nc(Cc3cc(F)c(-c4cccc(OCc5ncc(-c6ccccn6)s5)n4)cc3F)n(C[C@@H]3CCO3)c2c1` [Example 107, (S)-2-(2,5-difluoro-4-(6-((5-(pyridin-2-yl)thiazol-2-yl)methoxy)pyridin-2-yl)benzyl)-1-(oxetan-2-ylmethyl)-1H-benzo[d]imidazole-6-carboxylic acid], a half-maximal effect (EC50) was put at 0.31 nM. This EC50 lies about 1.9-fold lower than the previous one. On to `N#Cc1ncc(COc2cccc(-c3cc(F)c(Cc4nc5ccc(C(=O)O)cc5n4C[C@@H]4CCO4)cc3F)n2)s1` [Example 166, (S)-2-(4-(6-((2-cyanothiazol-5-yl)methoxy)pyridin-2-yl)-2,5-difluorobenzyl)-1-(oxetan-2-ylmethyl)-1H-benzo[d]imidazole-6-carboxylic acid], for which the EC50 turned out to be 0.62 nM. The value for `CNC(=O)c1cc(F)c(COc2cccc(-c3cc(F)c(Cc4nc5ccc(C(=O)O)cc5n4C[C@@H]4CCO4)cc3F)n2)cn1` [Example 243, 2-[[2,5-difluoro-4-[6-[[4-fluoro-6-(methylcarbamoyl)-3-pyridyl]methoxy]-2-pyridyl]phenyl]methyl]-3-[[(2S)-oxetan-2-yl]methyl]benzimidazole-5-carboxylic acid] was 0.17 nM. Regarding `Cn1cc(-c2cnc(COc3nc(-c4cc(F)c(Cc5nc6c(F)cc(C(=O)O)cc6n5C[C@@H]5CCO5)cc4F)ccc3F)s2)cn1` [Example 98, (S)-2-(2,5-difluoro-4-(5-fluoro-6-((5-(1-methyl-1H-pyrazol-4-yl)thiazol-2-yl)methoxy)pyridin-2-yl)benzyl)-4-fluoro-1-(oxetan-2-ylmethyl)-1H-benzo[d]imidazole-6-carboxylic acid], the concentration giving a half-maximal response (EC50) was 0.03 nM. This EC50 lies about 5.7-fold lower than the previous one. Turning to `COCCn1c(Cc2cc(F)c(-c3cccc(OCc4ccc(C#CC5CN(C(=O)OC)C5)cc4F)n3)cc2F)nc2ccc(C(=O)O)cc21` [Example 235, 2-[[2,5-difluoro-4-[6-[[2-fluoro-4-[2-(1-methoxycarbonylazetidin-3-yl)ethynyl]phenyl]methoxy]-2-pyridyl]phenyl]methyl]-3-(2-methoxyethyl)benzimidazole-5-carboxylic acid], the EC50 amounted to 1.1 nM. The value for `O=C(O)c1ccc2nc(Cc3cc(F)c(-c4cccc(OCc5ccc(C(F)(F)F)o5)n4)cc3F)n(C[C@@H]3CCO3)c2c1` [Example 61, (S)-2-(2,5-difluoro-4-(6-((5-(trifluoromethyl)furan-2-yl)methoxy)pyridin-2-yl)benzyl)-1-(oxetan-2-ylmethyl)-1H-benzo[d]imidazole-6-carboxylic acid] was 0.96 nM. In turn, `Cn1cc(C#Cc2cnc(COc3cccc(-c4cc(F)c(Cc5nc6ccc(C(=O)O)cc6n5C[C@@H]5CCO5)cc4F)n3)s2)cn1` [Example 114, (S)-2-(2,5-difluoro-4-(6-((5-((1-methyl-1H-pyrazol-4-yl)ethynyl)thiazol-2-yl)methoxy)pyridin-2-yl)benzyl)-1-(oxetan-2-ylmethyl)-1H-benzo[d]imidazole-6-carboxylic acid] showed an EC50 of 0.11 nM. The molecule `O=C(O)c1ccc2nc(Cc3cc(F)c(-c4cccc(OCc5ccc(C#Cc6cncnc6)cc5F)n4)cc3F)n(C[C@@H]3CCO3)c2c1` [Example 138, (S)-2-(2,5-difluoro-4-(6-((2-fluoro-4-(pyrimidin-5-ylethynyl)benzyl)oxy)pyridin-2-yl)benzyl)-1-(oxetan-2-ylmethyl)-1H-benzo[d]imidazole-6-carboxylic acid] displayed an EC50 of 0.28 nM. The molecule `Cn1cc(C#Cc2cc(Cl)c(COc3cccc(-c4cc(F)c(Cc5nc6ccc(C(=O)O)cc6n5C[C@@H]5CCO5)cc4F)n3)cn2)cn1` [Example 300, (S)-2-(4-(6-((4-chloro-6-((1-methyl-1H-pyrazol-4-yl)ethynyl)pyridin-3-yl)methoxy)pyridin-2-yl)-2,5-difluorobenzyl)-1-(oxetan-2-ylmethyl)-1H-benzo[d]imidazole-6-carboxylic acid] came in with a concentration for a half-maximal effect (EC50) of 0.823 nM. Against the preceding molecule, the EC50 is about 2.9-fold higher. For the molecule `Cc1ncc(COc2cccc(-c3cc(F)c(Cc4nc5ccc(C(=O)O)cc5n4C[C@@H]4CCO4)cc3F)n2)n1C` [Example 179, (S)-2-(4-(6-((1,2-dimethyl-1H-imidazol-5-yl)methoxy)pyridin-2-yl)-2,5-difluorobenzyl)-1-(oxetan-2-ylmethyl)-1H-benzo[d]imidazole-6-carboxylic acid], a half-maximal effect (EC50) was put at 4.59 nM. The value for `Cn1cnc(COc2cccc(-c3cc(F)c(Cc4nc5ccc(C(=O)O)cc5n4C[C@@H]4CCO4)cc3F)n2)c1` [Example 177, (S)-2-(2,5-difluoro-4-(6-((1-methyl-1H-imidazol-4-yl)methoxy)pyridin-2-yl)benzyl)-1-(oxetan-2-ylmethyl)-1H-benzo[d]imidazole-6-carboxylic acid] was 34.6 nM; that for `N#Cc1ccc2nc(COc3cccc(-c4cc(F)c(Cc5nc6ccc(C(=O)O)cc6n5C[C@@H]5CCO5)cc4F)n3)cn2c1` [Example 31, (S)-2-(4-(6-((6-cyanoimidazo[1,2-a]pyridin-2-yl)methoxy)pyridin-2-yl)-2,5-difluorobenzyl)-1-(oxetan-2-ylmethyl)-1H-benzo[d]imidazole-6-carboxylic acid] was 1.32 nM; that for `Cn1cncc1COc1cccc(-c2cc(F)c(Cc3nc4ccc(C(=O)O)cc4n3C[C@@H]3CCO3)cc2F)n1` [Example 178, (S)-2-(2,5-difluoro-4-(6-((1-methyl-1H-imidazol-5-yl)methoxy)pyridin-2-yl)benzyl)-1-(oxetan-2-ylmethyl)-1H-benzo[d]imidazole-6-carboxylic acid] was 23.6 nM. Molecule `Cn1nncc1C#Cc1ccc(COc2cccc(-c3cc(F)c(Cc4nc5ccc(C(=O)O)cc5n4C4COCC4(C)C)cc3F)n2)c(F)c1` (centres unmarked) [Example 279, 2-(2,5-difluoro-4-(6-((2-fluoro-4-((1-methyl-1H-1,2,3-triazol-5-yl)ethynyl)benzyl)oxy)pyridin-2-yl)benzyl)-1-(4,4-dimethyltetrahydrofuran-3-yl)-1H-benzo[d]imidazole-6-carboxylic acid] had a concentration giving a half-maximal response (EC50) of 0.955 nM.

In the case of `Cn1cc(C#Cc2cnc(COc3cccc(-c4cc(F)c(Cc5nc6ccc(C(=O)O)cc6n5C[C@@H]5CCO5)cc4F)n3)c(F)c2)cn1` [Example 143, (S)-2-(2,5-difluoro-4-(6-((3-fluoro-5-((1-methyl-1H-pyrazol-4-yl)ethynyl)pyridin-2-yl)methoxy)pyridin-2-yl)benzyl)-1-(oxetan-2-ylmethyl)-1H-benzo[d]imidazole-6-carboxylic acid], the concentration for a half-maximal effect (EC50) turned out to be 0.14 nM. In turn, `Cc1cn(C)nc1COc1cccc(-c2cc(F)c(Cc3nc4ccc(C(=O)O)cc4n3C[C@@H]3CCO3)cc2F)n1` [Example 77, (S)-2-(4-(6-((1,4-dimethyl-1H-pyrazol-3-yl)methoxy)pyridin-2-yl)-2,5-difluorobenzyl)-1-(oxetan-2-ylmethyl)-1H-benzo[d]imidazole-6-carboxylic acid] came in with a half-maximal effective concentration (EC50) of 6.32 nM.

As to `CN1CC(n2cc(-c3ccc(COc4cccc(-c5cc(F)c(Cc6nc7ccc(C(=O)O)cc7n6C[C@@H]6CCO6)cc5F)n4)c(F)c3)nn2)C1` [Example 220, (S)-2-(2,5-difluoro-4-(6-((2-fluoro-4-(1-(1-methylazetidin-3-yl)-1H-1,2,3-triazol-4-yl)benzyl)oxy)pyridin-2-yl)benzyl)-1-(oxetan-2-ylmethyl)-1H-benzo[d]imidazole-6-carboxylic acid], a half-maximal response (EC50) required 2.08 nM. The molecule `Cn1ccc(C#Cc2ccc(COc3cccc(-c4cc(F)c(Cc5nc6ccc(C(=O)O)cc6n5C[C@@H]5CCO5)cc4F)n3)c(F)c2)cc1=O` [Example 357, (S)-2-(2,5-difluoro-4-(6-((2-fluoro-4-((1-methyl-2-oxo-1,2-dihydropyridin-4-yl)ethynyl)benzyl)oxy)pyridin-2-yl)benzyl)-1-(oxetan-2-ylmethyl)-1H-benzo[d]imidazole-6-carboxylic acid] had a concentration giving a half-maximal response (EC50) of 0.508 nM. The value for `COc1nnc(COc2nc(-c3cc(F)c(Cc4nc5c(Cl)cc(C(=O)O)cc5n4[C@@H]4COCC4(C)C)cc3F)ccc2F)s1` [Example 367, (S)-4-chloro-2-(2,5-difluoro-4-(5-fluoro-6-((5-methoxy-1,3,4-thiadiazol-2-yl)methoxy)pyridin-2-yl)benzyl)-1-(4,4-dimethyltetrahydrofuran-3-yl)-1H-benzo[d]imidazole-6-carboxylic acid] was 0.235 nM.
